# ChEMBL document CHEMBL3885861, “Open TG-GATES”
# Organism: Rattus norvegicus
# Test: Open TG-GATES - Regimen: Single
# Format: toxicity, organism-based, Sprague-Dawley
# Design: regimen Single, gender Male, age 6 weeks
# Conditions: in vivo, po, 600 mg/kg, route gavage, dose level Middle; for Bas / Eos / Ht / Lym / MCH / Mono / Neu / RBC / Ret: tissue Blood; for KIDNEY_L / KIDNEY_R / KIDNEY_TOTAL: tissue Kidney; for LIVER: tissue Liver; for ALP / ALT / AST / CRE / Ca / DBIL / IP / K / LDH / Na / PL / RALB / TBIL / TC / TG / TP / gamma-GTP: tissue Plasma
compound,measurement,setting,value
COc1cc2ncnc(Nc3ccc(F)c(Cl)c3)c2cc1OCCCN1CCOCC1 [GEFITINIB],Bas,3 h,0%
same,Eos,3 h,0.6%
same,Ht,3 h,37%
same,Lym,3 h,75%
same,MCH,3 h,21.1 pg
same,Mono,3 h,2.4%
same,Neu,3 h,21%
same,RBC,3 h,588 x10_4/ul
same,Ret,3 h,9.3%
same,KIDNEY_L,3 h,1 g
same,KIDNEY_R,3 h,1 g
same,KIDNEY_TOTAL,3 h,1.9 g
same,LIVER,3 h,9.7 g
same,ALP,3 h,1687 IU/L
same,ALT,3 h,58.6 IU/L
same,AST,3 h,80.8 IU/L
same,CRE,3 h,0.1 mg/dL
same,Ca,3 h,9.7 mg/dL
same,DBIL,3 h,0.016 mg/dL
same,IP,3 h,8.6 mg/dL
same,K,3 h,3.9 meq/L
same,LDH,3 h,191.4 IU/L
same,Na,3 h,141.8 meq/L
same,PL,3 h,141 mg/dL
same,RALB,3 h,3.9 g/dL
same,TBIL,3 h,0.074 mg/dL
same,TC,3 h,87.2 mg/dL
same,TG,3 h,49.7 mg/dL
same,TP,3 h,5.4 g/dL
same,gamma-GTP,3 h,1 IU/L
same,TERMINAL_BW,6 h,210.3 g
same,Bas,6 h,0%
same,Eos,6 h,0.6%
same,Ht,6 h,36.6%
same,Lym,6 h,80.2%
same,MCH,6 h,21.1 pg
same,Mono,6 h,2.6%
same,Neu,6 h,15.6%
same,RBC,6 h,582 x10_4/ul
same,Ret,6 h,8.9%
same,KIDNEY_L,6 h,0.9 g
same,KIDNEY_R,6 h,0.9 g
same,KIDNEY_TOTAL,6 h,1.9 g
same,LIVER,6 h,9.1 g
same,ALP,6 h,1267.2 IU/L
same,ALT,6 h,59.4 IU/L
same,AST,6 h,82 IU/L
same,CRE,6 h,0.1 mg/dL
same,Ca,6 h,9.8 mg/dL
same,DBIL,6 h,0.016 mg/dL
same,IP,6 h,8.8 mg/dL
same,K,6 h,4 meq/L
same,LDH,6 h,200.4 IU/L
same,Na,6 h,141.3 meq/L
same,PL,6 h,152.8 mg/dL
same,RALB,6 h,3.9 g/dL
same,TBIL,6 h,0.078 mg/dL
same,TC,6 h,96 mg/dL
same,TG,6 h,42.8 mg/dL
same,TP,6 h,5.4 g/dL
same,gamma-GTP,6 h,1 IU/L
same,TERMINAL_BW,9 h,212.8 g
same,Bas,9 h,0%
same,Eos,9 h,0.8%
same,Ht,9 h,37%
same,Lym,9 h,77.6%
same,MCH,9 h,21.1 pg
same,Mono,9 h,3%
same,Neu,9 h,18%
same,RBC,9 h,587 x10_4/ul
same,Ret,9 h,9.2%
same,KIDNEY_L,9 h,0.9 g
same,KIDNEY_R,9 h,1 g
same,KIDNEY_TOTAL,9 h,1.9 g
same,LIVER,9 h,8.9 g
same,ALP,9 h,1338.6 IU/L
same,ALT,9 h,51 IU/L
same,AST,9 h,71.2 IU/L
same,CRE,9 h,0.2 mg/dL
same,Ca,9 h,9.9 mg/dL
same,DBIL,9 h,0.016 mg/dL
same,IP,9 h,9.1 mg/dL
same,K,9 h,4.2 meq/L
same,LDH,9 h,160.6 IU/L
same,Na,9 h,143.1 meq/L
same,PL,9 h,153 mg/dL
same,RALB,9 h,3.8 g/dL
same,TBIL,9 h,0.076 mg/dL
same,TC,9 h,96 mg/dL
same,TG,9 h,46.7 mg/dL
same,TP,9 h,5.4 g/dL
same,gamma-GTP,9 h,0.9 IU/L
same,TERMINAL_BW,24 h,211.6 g
same,Bas,24 h,0%
same,Eos,24 h,0.8%
same,Ht,24 h,40%
same,Lym,24 h,66.2%
same,MCH,24 h,20.7 pg
same,Mono,24 h,3.6%
same,Neu,24 h,29%
same,RBC,24 h,625.6 x10_4/ul
same,Ret,24 h,7.6%
same,KIDNEY_L,24 h,0.9 g
same,KIDNEY_R,24 h,1 g
same,KIDNEY_TOTAL,24 h,1.9 g
same,LIVER,24 h,8.9 g
same,ALP,24 h,1287.2 IU/L
same,ALT,24 h,42 IU/L
same,AST,24 h,73.8 IU/L
same,CRE,24 h,0.2 mg/dL
same,DBIL,24 h,0.008 mg/dL
same,IP,24 h,8.9 mg/dL
same,K,24 h,4.3 meq/L
same,LDH,24 h,178.6 IU/L
same,Na,24 h,142.8 meq/L
same,PL,24 h,186.2 mg/dL
same,RALB,24 h,4 g/dL
same,TBIL,24 h,0.058 mg/dL
same,TC,24 h,126.4 mg/dL
same,TG,24 h,65 mg/dL
same,TP,24 h,5.5 g/dL
same,gamma-GTP,24 h,1.2 IU/L
